Here are results for two molecules from patent US20260256763A1, “Aromatic Amide Derivative, And Preparation Method Therefor And Use Thereof” (Zhejiang Hisun Pharmaceutical Co., Ltd., priority 2023, published 2026).

The test system of one series is OVCAR-3 cells. The series is described as follows: Inhibition on OVCAR-3 cell proliferation (CellTiter-Glo). As to conditions: Homo sapiens, OVCAR-3 cells (TP53 R248Q mutation), 72 hours. Type of series: cell-based. On the procedure:
Influences of the compounds of the present invention on OVCAR-3 cell proliferation were determined by the following method. OVCAR-3 cells (containing TP53 R248Q mutation) were purchased from the Cell Bank of Shanghai Institute of Biochemistry and Cell Biology, Chinese Academy of Sciences, and cultured in an RPMI 1640 culture medium containing […], 100 U penicillin and 100 μg/mL streptomycin. A cell viability was determined by a CellTiter-Glo® Luminescent Cell Viability Assay kit (Promega, article number G7573).
(§1) An experimental method was operated according to steps in the instruction of the kit, which was briefly described as follows: a test compound was dissolved in DMSO first to prepare a 10 mM stock solution, then the stock solution was diluted with the above RPMI 1640 culture medium to prepare a test sample, and a final concentration of the compound was in a range of 1000 nM-0.015 nM. Cells in a logarithmic growth phase were inoculated into a 96-well cell culture plate at a density of 1000 cells per well, cultured in a 5% CO2 incubator at 37° C. overnight, and then the test compound was added to continuously culture for 72 hours. After the culture was ended, 50 μL of CellTiter-Glo detection solution was added to each well, the plates were shaken for 5 minutes, and then allowed to stand for 10 minutes, and subsequently, a luminous value of each well of sample was read by a microplate reader in a Luminescence mode. By comparing with a numerical value of a control group (0.3% DMSO), a percentage inhibition rate of the compound at each concentration was calculated, and then nonlinear regression analysis was carried out based on concentration logarithm-inhibition rate of the compound in GraphPad Prism 5 software, so as to obtain an IC50 value of the compound in inhibition on cell proliferation, which are shown in Table 1.
Background: In ATP-based viability assays light output follows the ATP content of the culture.

Another series has as its system HT-29 cells. Put plainly: Inhibition on HT-29 cell proliferation (CellTiter-Glo). It counts as cell-based. As to conditions: Homo sapiens, HT-29 cells (TP53 R273H mutation), 120 hours. On the procedure:
Influences of the compounds of the present invention on HT-29 cell proliferation were determined by the following method. HT-29 cells (containing TP53 R273H mutation) were purchased from the Cell Bank of Shanghai Institute of Biochemistry and Cell Biology, Chinese Academy of Sciences, and cultured in a McCOY's 5A culture medium containing 10% fetal bovine serum, 100 U penicillin and 100 μg/mL streptomycin. A cell viability was determined by a CellTiter-Glo® Luminescent Cell Viability Assay kit (Promega, article number G7573).
as §1, with “McCOY's 5A” for “RPMI 1640”, “120” for “72”, “µL” for “μL”, “2.” for “1.”

Series [1] is described as follows: Pharmacokinetic testing in mice. It counts as in vivo. The settings on record: male, mouse, ICR mice, plasma; for half-life / Cmax: 10 mg/kg, oral administration (10 mg/mL); for half-life: read-out: Half-life period T½ (converted); for Cmax: read-out: Plasma concentration Cmax; for AUC(0-inf): oral administration (10 mg/kg), read-out: Area under the curve AUC0-∞. On the procedure:
ICR mice were taken as test animals, and intragastrically administered with a control compound AMG650 and compounds 1, 18 and 29 of the present invention, and then drug concentrations in plasma at different moments were determined by an LC/MS/MS method, so as to study pharmacokinetic characteristics of the compounds of the present invention in the mice.
Control compound AMG650, and Compounds 1, 18 and 29.
ICR mice, male, 27.3-30.3 g, purchased from Vital River Laboratory Animal Technology Co., Ltd.
A proper amount of to-be-tested compound was weighed, proper amounts of DMA (N,N-dimethylacetamide), CrEL (polyoxyethylene 35 castor oil) and 5% GS (5% glucose injection) were added in sequence, and the obtained system was evenly mixed by ultrasonic vortex to prepare a 1 mg/mL preparation, wherein DMA, CrEL and 5% GS=10:10:80 (v:v:v).
ICR mice in each to-be-tested compound injection group (9 mice in each group) were fasted overnight and then intragastrically administered with the compound (PO, an administration dosage of the compound was 10 mg/kg and an administration volume of the compound was 10 mL/kg), and were fed 4 hours after administration.
0.25 hours, 0.5 hours, 1 hour, 2 hours, 4 hours, 8 hours, 10 hours and 24 hours before and after administration, about […] of blood was collected through an orbit, and a complete blood sample was placed in an EDTA-K2-containing anticoagulation tube. The collected blood sample was placed on ice, and plasma was centrifugally separated (centrifugation conditions: 1500 g, 10 minutes). The collected plasma was stored at −40~−20° C. before analysis.
A content of the to-be-tested compound in the plasma of the mice after intragastric administration was determined by LC-MS/MS.

The target in another series is T1, recombinant human KIF18A (Homo sapiens, UniProt Q8NI77).
T1 construct: purchased GenScript
Put plainly: Inhibition on KIF18A enzyme activity (ADP-Glo). Type of series: biochemical. As to conditions: recombinant human KIF18A 100 nM, ATP 60 μM. On the procedure: Inhibition degrees of the compounds of the present invention on recombinant human KIF18A enzyme activity in vitro were determined by the following method. An ADP-Glo™ Kinase Assay kit (article number V9102) from Promega Company was used in this method. Detailed experimental operation can be referred to the instruction of the kit.
The reaction was carried out in a 384-well microplate. The test compound and the recombinant human KIF18A protein (final concentration of 100 nM, entrusted to GenScript for expression) were added into the wells and incubated at room temperature for 20 minutes, and subsequently, ATP solution (component V915A from the ADP-Glo™ Kinase Assay kit, final concentration of 60 μM) was added to the reaction solution and the obtained system was incubated at room temperature for 20 minutes. Subsequently, 5 μL of ADP-Glo Reagent was added to the reaction system and the obtained system was incubated at room temperature for 50 minutes. Then, 10 μL of Kinase Detection Reagent was added to the reaction system, and the obtained system was incubated at room temperature for 30 minutes. After the incubation was ended, a chemiluminiscence intensity value of each well was determined by a microplate reader in a Luminescence mode.
A general note: ADP-Glo turns the ADP formed in a reaction into a luminescent signal.

T1 sequence (Q8NI77 whole entry): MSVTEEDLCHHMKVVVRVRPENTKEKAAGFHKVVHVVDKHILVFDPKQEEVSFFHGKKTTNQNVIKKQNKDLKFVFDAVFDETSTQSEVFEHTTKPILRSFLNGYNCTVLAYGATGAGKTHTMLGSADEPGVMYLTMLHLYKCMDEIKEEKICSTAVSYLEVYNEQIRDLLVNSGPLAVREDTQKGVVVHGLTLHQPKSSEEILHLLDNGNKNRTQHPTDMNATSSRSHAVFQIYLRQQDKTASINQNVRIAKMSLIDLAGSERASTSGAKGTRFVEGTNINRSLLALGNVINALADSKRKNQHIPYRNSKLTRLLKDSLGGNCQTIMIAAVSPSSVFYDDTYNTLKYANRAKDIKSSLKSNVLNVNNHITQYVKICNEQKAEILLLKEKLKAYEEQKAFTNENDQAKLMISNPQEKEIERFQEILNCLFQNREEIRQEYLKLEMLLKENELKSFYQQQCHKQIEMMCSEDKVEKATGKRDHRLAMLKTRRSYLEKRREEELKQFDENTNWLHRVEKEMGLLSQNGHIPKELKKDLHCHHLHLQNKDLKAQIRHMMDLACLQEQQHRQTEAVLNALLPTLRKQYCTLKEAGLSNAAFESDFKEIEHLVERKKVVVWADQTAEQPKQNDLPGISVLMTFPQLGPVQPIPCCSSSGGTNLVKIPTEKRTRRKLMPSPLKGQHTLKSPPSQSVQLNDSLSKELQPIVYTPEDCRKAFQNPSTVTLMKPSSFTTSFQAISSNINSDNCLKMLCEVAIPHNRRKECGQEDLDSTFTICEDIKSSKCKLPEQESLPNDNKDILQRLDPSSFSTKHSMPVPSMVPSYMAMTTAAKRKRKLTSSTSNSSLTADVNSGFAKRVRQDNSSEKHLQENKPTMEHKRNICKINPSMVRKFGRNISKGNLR
T1 sequence (P68363 whole entry partner): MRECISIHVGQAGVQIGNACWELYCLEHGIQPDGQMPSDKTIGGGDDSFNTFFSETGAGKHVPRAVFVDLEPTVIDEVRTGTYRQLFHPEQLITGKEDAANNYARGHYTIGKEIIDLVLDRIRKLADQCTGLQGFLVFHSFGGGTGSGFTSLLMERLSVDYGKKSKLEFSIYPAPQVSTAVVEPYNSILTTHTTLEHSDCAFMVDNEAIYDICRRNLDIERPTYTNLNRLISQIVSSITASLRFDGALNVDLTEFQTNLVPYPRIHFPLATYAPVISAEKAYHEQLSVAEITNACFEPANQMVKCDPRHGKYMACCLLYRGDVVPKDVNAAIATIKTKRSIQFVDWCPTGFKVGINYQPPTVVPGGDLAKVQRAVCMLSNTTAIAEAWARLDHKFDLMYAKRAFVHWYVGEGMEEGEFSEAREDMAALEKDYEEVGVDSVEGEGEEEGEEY
T1 sequence (Q9BVA1 whole entry partner): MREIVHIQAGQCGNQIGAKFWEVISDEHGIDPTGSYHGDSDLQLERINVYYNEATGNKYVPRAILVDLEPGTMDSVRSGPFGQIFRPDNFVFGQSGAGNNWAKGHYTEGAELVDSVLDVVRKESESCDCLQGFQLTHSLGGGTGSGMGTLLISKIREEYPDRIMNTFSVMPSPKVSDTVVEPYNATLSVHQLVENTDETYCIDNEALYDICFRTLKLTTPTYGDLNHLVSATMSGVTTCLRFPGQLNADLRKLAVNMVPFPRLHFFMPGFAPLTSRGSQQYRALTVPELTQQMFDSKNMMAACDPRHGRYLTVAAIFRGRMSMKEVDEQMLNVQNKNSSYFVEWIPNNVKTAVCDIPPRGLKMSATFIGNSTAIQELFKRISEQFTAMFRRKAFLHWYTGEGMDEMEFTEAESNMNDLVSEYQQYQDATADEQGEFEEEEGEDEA

`CCS(=O)(=O)Nc1ccc(C(=O)Nc2cc(N3CCC(F)(F)CC3)c3nn(C)cc3c2)c(N2CCC3(CC2)CC3)c1` [Example 18, N-(7-(4,4-difluoropiperidin-1-yl)-2-methyl-2H-indazol-5-yl)-4-(ethylsulfonamido)-2-(6-azaspiro[2.5]octan-6-yl)benzamide] registered an IC50 in the series on OVCAR-3 cells of 3.3 nM. The same molecule had a half-maximal inhibitory concentration (IC50) in the series with HT-29 cells of 7.7 nM. For the same molecule, in series [1], the half-life is 5.2 h, the Cmax turned out to be 3030 ng/mL and the AUC(0-inf) came to 45900 ng·h/mL.
Consider `O=C(Nc1cc2c(c(N3CCC(F)(F)CC3)c1)OCC2)c1ccc(NS(=O)(=O)CCO)cc1N1CCC2(CC1)CC2` [Example 29, N-(7-(4,4-difluoropiperidin-1-yl)-2,3-dihydrobenzofuran-5-yl)-4-((2-hydroxyethyl)sulfamine)-2-(6-azaspiro[2.5]octan-6-yl)benzamide], for which, at recombinant human KIF18A, the IC50 was found to be 316 nM. In addition, in series [1], the half-life was 1.24 h, the Cmax stood at 6960 ng/mL and the AUC(0-inf) is 25900 ng·h/mL.

What is called IC50 is the concentration that inhibits the measured activity by half. For orientation: half-life means the time in which the quantity being followed falls by half.
